Experimental data taken from patent US4634707A, “5-Pyrimidinecarboxamides and treatment of leukemia and tumors therewith” (Uniroyal Chemical Company, priority 1984, dated 1987).

Tested on: L1210 leukemia
Assay: NCI 3LE31, i.p.-implanted L1210 lymphoid leukemia
Assay type: in vivo, DBA/2 mice
Method: The spectrum of antitumor activity of the compound of Example 1 was determined employing a number of standard National Cancer Institute (NCI) protocols. The antitumor activity was determined in vivo against several different tumors, employing various treatment schedules and routes of administration.
Samples of the test compounds of Examples 1-10 and a number of structurally-related control compounds were tested in accordance with National Cancer Institute test protocol 3LE31 (NCI Protocol 1.100, Cancer Chemotherapy Reports Part 3, Vol. 3, No. 2, September 1972) to determine the effects of the several compounds on i.p.-implanted L1210 leukemia (J. Nat'l. Cancer Inst. 13(5):1328, 1953). Each test involved implantation of the leukemia cells in six DBA/2 mice, one sex per experiment, the male mice weighing a minimum of 18 grams and the female mice weighing a minimum of 17 grams, and all of the test animals being within a three gram weight range. The test compound was administered by i.p. injections, in 0.1 ml. doses of diluted ascitic fluid (10^5 cells per dose), commencing one day after the tumor implant and continuing daily for nine days.
The test animals were weighed and survivors recorded on a regular basis during a thirty day test period. The ratio of survival time for the treated and control animals (T/C) was determined as a percentage.
The tests were carried out at varying dosage levels and with varying numbers of repetitions, depending upon the results obtained with each test compoud. […] A reproducible T/C of 150% or higher is considered significant activity.
The number of mice "cured", viz., those surviving from each animal test group after the thirty day test period, is indicated in parenthesis following the T/C percentage data in Table III below: […]

[1] = 25 mg/kg i.p. daily for nine days
[2] = 50 mg/kg i.p. daily for nine days
[3] = 100 mg/kg i.p. daily for nine days
[4] = 200 mg/kg i.p. daily for nine days
[5] = Mus musculus, L1210, ip, 25 mg/kg i.p. daily for nine days, read-out: T/C % (survival time treated/control)
[6] = Mus musculus, L1210, ip, 50 mg/kg i.p. daily for nine days, read-out: T/C % (survival time treated/control)
[7] = Mus musculus, L1210, ip, 100 mg/kg i.p. daily for nine days, read-out: T/C % (survival time treated/control)
[8] = Mus musculus, L1210, ip, 200 mg/kg i.p. daily for nine days, read-out: T/C % (survival time treated/control)

SMILES	T/C % (survival time treated/control) [1]	T/C % (survival time treated/control) [2]	T/C % (survival time treated/control) [3]	T/C % (survival time treated/control) [4]	response vs control in vivo at 25 mg/kg [5]	response vs control in vivo at 50 mg/kg [6]	response vs control in vivo at 100 mg/kg [7]	response vs control in vivo at 200 mg/kg [8]	other results
Cn1c(O)c(C(=O)Nc2ccc(Cl)cc2)c(=O)n(C)c1=S [Control M]	Toxic	Toxic	Toxic	Toxic	–	–	–	–	response vs control in vivo at 1.5 mg/kg (Mus musculus, L1210, ip, 1.5 mg/kg i.p. daily for nine days, read-out: T/C % (survival time treated/control)): 106%; response vs control in vivo at 3 mg/kg (Mus musculus, L1210, ip, 3 mg/kg i.p. daily for nine days, read-out: T/C % (survival time treated/control)): 92%; response vs control in vivo at 6 mg/kg (Mus musculus, L1210, ip, 6 mg/kg i.p. daily for nine days, read-out: T/C % (survival time treated/control)): 95%; response vs control in vivo at 12 mg/kg (Mus musculus, L1210, ip, 12 mg/kg i.p. daily for nine days, read-out: T/C % (survival time treated/control)): 106%; response vs control in vivo at 0.75 mg/kg (Mus musculus, L1210, ip, .75 mg/kg i.p. daily for nine days, read-out: T/C % (survival time treated/control)): 102%
O=C(Nc1cccc(F)c1)c1c(O)[nH]c(=S)[nH]c1=O [Example 4, N-(3-fluorophenyl)-1,2,3,4-tetrahydro-6-hydroxy-4-oxo-2-thioxo-5-pyrmidinecarboxamide]	–	–	–	–	114%	114%	128%	155%	–
Cn1c(=S)[nH]c(O)c(C(=O)Nc2cccc([N+](=O)[O-])c2)c1=O [Control I]	–	–	–	–	102%	98%	102%	112%	–
Cn1c(=S)[nH]c(O)c(C(=O)Nc2cccc([N+](=O)[O-])c2)c1=O [Control J]	100%	94%	104%	101%	–	–	–	–	–
O=C(Nc1ccc(Cl)cc1)c1c(O)[nH]c(=S)[nH]c1=O [Control A]	–	–	–	Toxic	110%	121%	125%	–	T/C (3LE31, upon further testing): less than 125%; activity in i.p.-implanted lymphoid leukemia test (in words) (3LE31, reproducible T/C of 150% or higher is considered significant activity): inactive
O=c1[nH]c(=S)[nH]c(O)c1C(=S)Nc1ccccc1 [Control W]	–	–	–	–	101%	102%	94%	103%	–
O=C(Nc1ccccc1)c1c(O)n(-c2ccccc2)c(=S)n(-c2ccccc2)c1=O [Control T]	102%	109%	–	–	–	–	–	–	T/C % (survival time treated/control) (400 mg/kg i.p. daily for nine days): 109%
O=C(Nc1ccccc1)c1c(O)[nH]c(=S)n(-c2ccccc2)c1=O [Control P]	110%	116%	Toxic	Toxic	–	–	–	–	–
O=C(Nc1ccccc1)c1c(O)n(-c2ccccc2)c(=S)n(-c2ccccc2)c1=O [Control S]	–	–	–	–	97%	100%	–	–	–
O=C(Nc1ccccc1F)c1c(O)[nH]c(=S)[nH]c1=O [Example 8, N-(2-fluorophenyl)-1,2,3,4-tetrahydro-6-hydroxy-4-oxo-2-thioxo-5-pyrimidinecarboxamide]	–	–	–	–	148%	105%	128%	118%	–
O=c1[nH]c(O)c(C(=S)Nc2ccccc2)c(=O)[nH]1 [Control X]	–	–	–	–	105%	98%	97%	104%	–
O=C(Nc1ccc(Cl)cc1)c1c(O)[nH]c(=S)n(-c2ccccc2)c1=O [Control R]	106%	121%	88%	Toxic	–	–	–	–	–
Cc1ccc(C)c(NC(=O)c2c(O)n(C)c(=S)n(C)c2=O)c1 [Control N]	–	Toxic	Toxic	Toxic	103%	–	–	–	–
